Source: patent US4623641A, “Method of treating ulcers and erosions in the gastrointestinal system using PGI2 -methyl ester-beta cyclodextrin inclusion complexes” (Chinoin Gyogyszer es Vegyeszeti Termekek Gyara R.T., priority 1985, dated 1986)

Experiments:
stress ulcer = assay: Stress ulcer test (immobilized rats, ulcer index); type: in vivo, female wistar rats; settings: for U.I. (delta %): control = 100
Description: For the following tests 200-250 g female wistar rats were fasted for 24 hours before the experiment. Water was given ad libium. A. STRESS ULCER TEST The rats were immobilized on their backs for 24 hours. After immobilization the animals were killed, and their stomachs were prepared for ulcer analysis. The gastric cytoprotective effect of PCCD was tested by administering it in the following way: Case A: At 0, 6th, 12th and 18th hour after the immobilization. Administrations were carried out both ip and per os. In both cases the animals were killed and their stomachs prepared for ulcer analysis. In each experiment the ulcer index was calculated. In the calculation of the U.I., each mm^2 of ulcer or erosion is 1 point. Bleeding results in an additional 5 points. Perforation means an additional 10 points. The number of animals is (n=20) in each group. Mean (%)±S.E.M. is calculated. Statistical analysis is done according to the Student's T-Test. Significance level, p is less than 0.05.

[1] = test system: gastric lesions on the corpus mucosa; assay: Gastric cytoprotective test (ethanol-induced gastric lesions, A. Robert); type: in vivo, rats; settings: for ED50: Rattus norvegicus, PCCD values relate to active ingredient
Description: For the following tests 200-250 g female wistar rats were fasted for 24 hours before the experiment. Water was given ad libium.
C. GASTRIC CYTOPROTECTIVE TEST
The following method according to the abovementioned reference was employed:
The cytoprotective substances were applied before giving ethanol p.o. or subcutaneously. As controls, prostacylin (PGI2) and PGE2 were used.
Evaluation was carried out by killing the animals and then removing their stomachs. The number of gastric lesions was determined in each case. The dose of the cytoprotective compounds giving a 50% inhibiting effect was determined. The number of gastric erosions in the stomachs of animals not treated with a cytoprotective agent was designated 100%.

gastric mucosa = settings: in vivo; cited from earlier work
[2] = in vivo; cited from earlier work
[3] = Stability on oral application (acidic pH of the stomach); type: physicochemical; settings: oral administration
[4] = 100 micrograms/kg i.p., PCCD data calculated for active ingredient

Q: With OC[C@H]1O[C@@H]2O[C@H]3[C@H](O)[C@@H](O)[C@@H](O[C@H]4[C@H](O)[C@@H](O)[C@@H](O[C@H]5[C@H](O)[C@@H](O)[C@@H](O[C@H]6[C@H](O)[C@@H](O)[C@@H](O[C@H]7[C@H](O)[C@@H](O)[C@@H](O[C@H]8[C@H](O)[C@@H](O)[C@@H](O[C@H]1[C@H](O)[C@H]2O)O[C@@H]8CO)O[C@@H]7CO)O[C@@H]6CO)O[C@@H]5CO)O[C@@H]4CO)O[C@@H]3CO [Beta-cyclodextrin] as the compound, how does the “U.I. ± S.E.M.” value (stress ulcer; 5 mg/kg i.p.) read?
A: Its value is 6.8 ± 2.15.

Q: What about the “U.I. (delta %)” value (stress ulcer; 5 mg/kg i.p.) of the same compound?
A: The value was 77.9%.

Q: With CN/C(=N/CCSCc1nc[nH]c1C)NC#N [Cimetidine] as the compound, how does the “U.I. ± S.E.M.” value (stress ulcer; 10 mg/kg i.p.) read?
A: The value was 3.0 ± 1.08.

Q: And the “U.I. (delta %)” value (stress ulcer; 10 mg/kg i.p.)?
A: The value was 38.9%.

Q: And the “U.I. ± S.E.M.” value (stress ulcer; 10 mg/kg p.o.)?
A: The value was 2.82 ± 1.36.

Q: What about the “U.I. (delta %)” value (stress ulcer; 10 mg/kg p.o.) of the same compound?
A: Its value is 36.7%.

Q: Which ED50 ([1]; po, orally) does the source give for CCCCC[C@H](O)/C=C/[C@H]1[C@H](O)CC(=O)[C@@H]1C/C=C\CCCC(=O)O [PGE2] here?
A: The ED50 was 0.03 mg/kg.

Q: And the ED50 ([1]; sc, subcutaneously)?
A: Its ED50 is 0.1 mg/kg.

Q: What about the “cytoprotective effect compared with PGI2” value ([1]; oral application) of the same compound?
A: Its value is “more effective”.

Q: And the “decreasing the blood loss of the gastric mucosa induced by non-steroidal antiphlogistics” value (gastric mucosa)?
A: The value was “significantly effective”.

Q: And the “therapy of peptic ulcers” value (gastric mucosa)?
A: The value was “significantly effective”.

Q: What about the side effects [2] of the same compound?
A: The side effects was “diarrhogen side effects”.

Q: Which “stability compared with PGE2” value [3] does the source give for CCCCC[C@H](O)/C=C/[C@@H]1[C@H]2C/C(=C/CCCC(=O)O)O[C@H]2C[C@H]1O [PGI2, prostacyclin] here?
A: The value was “more unstable than is PGE2”.

Q: And the “U.I. ± S.E.M.” value (stress ulcer; [4])?
A: The value was 5.4 ± 1.54.

Q: What about the “U.I. (delta %)” value (stress ulcer; [4]) of the same compound?
A: Its value is 70.0%.

Q: What about the ED50 ([1]; po, orally) of the same compound?
A: Its ED50 is 1.8 mg/kg.

Q: And the ED50 ([1]; sc, subcutaneously)?
A: Its ED50 is 0.04 mg/kg.

Q: What about the “cytoprotective effect compared with PGE2” value ([1]; administered subcutaneously) of the same compound?
A: Its value is “stronger cytoprotective effect than PGE2”.

Q: With COc1ccc2c(c1)c(CC(=O)O)c(C)n2C(=O)c1ccc(Cl)cc1 [indomethacin] as the compound, how does the side effects [2] read?
A: Its side effects is “ulcerogenic side effects”.
